Like-named read-outs stand apart in the source and are kept apart here.
System: faecal proteolytic activity
Test: Human faecal proteolytic activity (in-vitro), succinyl albumin substrate
Format: biochemical
Procedure: Human faecal extracts (from asymptomatic volunteers) were obtained by suspending samples of stool in 4 volumes of M/15M KH2 PO4 /Na2 HPO4 pH 7.5 containing 50 mM NaCl and centrifuging at 10,000 g for 15 minutes at 4° C. The supernatant was retained as the faecal extract.
Proteolytic activity was measured using a modification of the method of Lin et al, J.Biol.Chem. 244 (4), 789-793 (1969), i.e. a sensitive trinitrobenzene sulphonic acid assay for formation of new peptide N-terminals using succinyl albumin as substrate. Faecal extract containing one unit of protease activity (equivalent to 1 μg trypsin) was mixed with 0.5 ml buffer (M/15 phosphate pH 7.5) or inhibitor. Substrate (0.5 ml, 8 mgml^-1 succinyl albumin) was added to start the reaction and samples were incubated for 30 minutes at 37° C. Four per cent (w/v) sodium bicarbonate (0.5 ml) and 0.05% (w/v) trinitrobenzene sulphonic acid were added to trinitrophenylate the free amino groups formed and samples were incubated at 50° C. for 10 minutes to develop colour.
10% (w/v) Sodium dodecyl sulphate (0.5 ml) and 1M HCl (0.25 ml) were added to complete the reaction. Absorbance at 340 nm was measured. All samples were compared with heat inactivated faecal extract controls (100° C., 10 minutes).
A linear increase in N-terminals formed by proteolytic cleavage of peptide bonds was found over the first 30 minutes of digestion. […] Proteolytic activity in faecal extracts against succinyl albumin was inhibited by soybean trypsin inhibitor (1 μg) and P.M.S.F. (1 mM) but not by iodoacetamide (50 mM) or Na2 E.D.T.A. (10 mM). In view of this, levels of faecal protease activity were subsequently quantified as equivalents of porcine pancreatic trypsin activity by weight.

## O=C(O)CN(CCN(CC(=O)O)CC(=O)O)CC(=O)O [Na2 E.D.T.A.]
  Inhibition of proteolytic activity in faecal extracts against succinyl albumin: not

## O=S(=O)(F)Cc1ccccc1 [P.M.S.F., phenylmethylsulphonyl fluoride]
1 mM
  Inhibition of proteolytic activity in faecal extracts against succinyl albumin: inhibited

## NC(=O)CI [iodoacetamide]
50 mM
  Inhibition of proteolytic activity in faecal extracts against succinyl albumin: not

B1: soybean trypsin inhibitor (protein, UniProt P01070 25-205, looked up)
Trypsin inhibitor A: DFVLDNEGNPLENGGTYYILSDITAFGGIRAAPTGNERCPLTVVQSRNELDKGIGTIISSPYRIRFIAEGHPLSLKFDSFAVIMLCVGIPTEWSVVEDLPEGPAVKIGENKDAMDGWFRLERVSDDEFNNYKLVFCPQQAEDDKCGDIGISIDHDDGTRRLVVSKNKPLVVQFQKLDKESL
1 μg
  Inhibition of proteolytic activity in faecal extracts against succinyl albumin: inhibited

From patent publication US5051253A, “Use of polyacrylates to reduce proteolytic activity in the human intestinal tract” (Reckitt & Colman Products Limited, priority 1988, dated 1991)
